Reference: patent US20140363530A1, “COMPOSITION COMPRISING THE EXTRACT OF PINE TREE LEAF OR THE COMPOUNDS ISOLATED THEREFROM FOR THE PREVENTION AND TREATMENT OF CANCER DISEASE BY INHIBITING HPV VIRUS AND THE USES THEREBY” (priority 2012, published 2014)
Values after ≈ are worked out from the molar mass of the structure shown.

What was measured:
[1] = tested on: MES-SA/DX5 (multidrug resistant carcinoma subline of MES-SA); test: SRB cytotoxicity test, MES-SA/DX5; assay type: cell-based, human; conditions: Homo sapiens, MES-SA/Dx5, 48 h, read-out: Cytotoxicity IC50, MES-SA/DX5
Protocol: (§1) To determine the cytotoxicity against human tumor cell line of the test samples prepared in Examples, following sulforhodamin B (SRB) bioassy test was performed according to the method disclosed in the literature (Skehan, P., et al., J. Natl. Cancer Inst., 82, 1990, 1107-1112).
(§2) Various human tumor cell lines, i.e., A-549 (human adenocarcinoma of lung, NCI), SK-OV-3 (human ovarian tumor, NCI), SK-MEL-2 (human malignant melanoma, NCI), HCT15 (human colon adenocarcinoma, NCI), MES-SA (human uterine carcinoma, NCI) and MES-SA/DX5 (multidrug resistant carcinoma subline of MES-SA, NCI) were used in the test.
(§3) The subcultured cell lines were detached from the surface of wall using by trypsin-EDTA solution and adjusted to various concentration of cell lines, i.e., 5×10^3 cells/well (A-549, HCT15), 1×10^4 cells/well (SK-MEL-2), 5×10^3 cells/well (SK-OV-3) in 96-well flat bottom microplate. The inoculated cell lines were incubated in CO2 incubator (MCO-20AIC, SANYO Electric Co., LTd.) to be attached on the bottom of incubator and the culture media was removed with aspirator. 6 logarithmic concentrations of the diluted test samples were added to each well containing cell line at 100 μl/well in a three fold dilution manner and the cell was incubated for 48 hours. The culture media in each well was removed and 100μ of 10% trichloroacetic acid was added thereto to be left alone at 4° C. for 1 hour and to fix the cells to the bottom of the plates. […] The cell plates were shaked with titer plate shaker (KOMA Orbital Shaker KE011, KOMABIOTech) for 10 mins to exude the staining solution and to determine the absorbance at 520 nm using by microplate spectrophotometer (Sunrise, TECAN).

[2] = tested on: SK-MEL-2 (human malignant melanoma); test: SRB cytotoxicity test, SK-MEL-2; assay type: cell-based; conditions: Homo sapiens, SK-MEL-2; Table 3, 48 hours; read-out: Cytotoxicity IC50, SK-MEL-2
Protocol: as §1, §2, §3

[3] = tested on: HCT15 (human colon adenocarcinoma); test: SRB cytotoxicity test, HCT15; assay type: cell-based; conditions: Homo sapiens, HCT-15, 48 h, Table 3, 48 hours; read-out: Cytotoxicity IC50, HCT15
Protocol: as §1, §2, §3

HPV16 PVs [4] = test: Virus inhibition test (in vitro), SEAP activity of 293TT cells infected with HPV pseudovirion; assay type: cell-based; conditions: Human papillomavirus 16, read-out: inhibitory activity from HPV16 PVs
Protocol: Prior to in vitro antiviral assay, 5×10^3 of 293TT cell was seeded on 96-well plate and incubated at 37° C. for 16 hours in 5% CO2 atmosphere. The culture media was removed and each extract was diluted to the concentration of 100 μg/ml or 50 μg/ml to distribute into each cell at the dose of 100 μl/cell. After treating with the extract for 16 hours, the culture media was removed and the cell was washed with PBS twice. The cell was infected by 106RLU/ml of HPV PVs at the dose of 100 μl/cell and incubated for 48 hours at 37° C. in 5% CO2 atmosphere. To determine the viral activity, the supernatant of the cell culture was used for determine the activity of secreted alkaline phosphatase (SEAP) using by Great EscAPE™ SEAP Chemiluminescence Kit (631738, Clontech, CA, USA). To determine the SEAP activity, relative light units (RLU) value was obtained using by Luminescence coulter (Micro beta triLux 1450, PerkinElmer, CT, USA) and the RLU values of the cell treated with the extract and untreated with the extract, were compared with each other. The decrease of SEAP activity was regarded as the inhibition effect against HPV PVs.
To determine the inhibitory effect on luciferase-comprising HPV virus contagion of the test samples prepared in Examples, following test was performed according to the method disclosed in the literature (Shaneyfelt et al., Virology Journal, 3:68, 2006, 1-11; Roden et al., J. Virol., 70, 1996, 5875-5883; Unckell et al., J. Virol., 71, 1997, 2934-2939; Touze et al., Nucleic Acids Research, 26, 1998, 1317-1323; Selinka et al., J. Virol., 77, 2003, 12961-12967; Klasse et al., Journal of General Virology, 83, 2002, 2091-2108)
5×10^3293TT cell was seeded on 96-well plate and incubate for 16 hours. 50 μg of test sample was mixed with the culture media in the concentration of 100 ug/ml and incubated for 16 hours. The media was washed with 100 μl of PBS twice and the cell was infected with 10^6RLU/ml of HPV pseudovirion at the dose of 100 μl/cell to incubate at 37° C., for 48 hours in 5% CO2 atmosphere.
5× lysis buffer in Great EscAPE™ SEAP Chemiluminescence Kit (631738, Clontech, CA, USA) was made to 1× and both of 45 μl of 1× lysis buffer and 15 μl of cell culture medium were added to 96-well plate (3912, Costar, NY, USA). 60 μl of the substrate in Great EscAPE™ SEAP Chemiluminescence kit was added thereto and the relative light units (RLU) value was obtained using by Luminescence coulter (Micro beta triLux 1450, PerkinElmer, CT, USA). The RLU values of the cell treated with the extract and untreated with the extract, were compared with each other and the decrease of SEAP activity was regarded as the inhibition effect against HPV PVs.

[5] = tested on: SK-OV-3 (human ovarian tumor); test: SRB cytotoxicity test, SK-OV-3; assay type: cell-based; conditions: Homo sapiens, SK-OV-3; Table 3, 48 hours; read-out: Cytotoxicity IC50, SK-OV-3
Protocol: as §1, §2, §3

HPV16 PVs [6] = test: Virus inhibition test (in vitro), SEAP activity of 293TT cells infected with HPV pseudovirion; assay type: cell-based; conditions: Human papillomavirus 16, read-out: inhibitory activity on HPV16 PVs
[7] = tested on: A-549 (human adenocarcinoma of lung); test: SRB cytotoxicity test, A-549; assay type: cell-based; conditions: Homo sapiens, A549; Table 3, 48 hours; read-out: Cytotoxicity IC50, A-549
Protocol: as §1, §2, §3

[8] = tested on: MES-SA (human uterine carcinoma); test: SRB cytotoxicity test, MES-SA; assay type: cell-based; conditions: Homo sapiens, MES-SA, 48 h, Table 3, 48 hours; read-out: Cytotoxicity IC50, MES-SA
Protocol: as §1, §2, §3

`C=C[C@]1(C)C=C2CC[C@@H]3[C@](C)(CCC[C@@]3(C)C(=O)O)[C@H]2CC1` [compound (j), sandaracopimaric acid] was tested, and the IC50 [1] was 11.1 µg/mL (≈ 36.6 µM), the IC50 [2] was 11.2 µg/mL (≈ 36.9 µM) and the IC50 [3] was 13.6 µg/mL (≈ 44.9 µM). The inhibition at 50 µg/mL (HPV16 PVs [4]) was 70 to 80%, the IC50 [5] was 12.1 µg/mL (≈ 40.1 µM) and the inhibition at 5 µg/mL (HPV16 PVs [6]) was ~50%. The IC50 [7] was 13.6 µg/mL (≈ 45.1 µM) and the IC50 [8] was 10.4 µg/mL (≈ 34.6 µM).
